Here are results for five compounds from patent US7323458B1, “Dihydrobenzodiazepins and their use for treating dyslipidemia” (Merck Patent Gesellschaft Mit Beschrankter Haftung, priority 1999, dated 2008).

The melting point is the temperature of the solid-liquid transition.

SMILES strings stand for the structures.

The subject of data set [1] is secretion of apo CIII. Nature of the data set: Reduction of apo CIII secretion by Hep G2 human hepatocytes in culture (ELISA). Conditions: HepG2, Hep G2 cells, 24 hours incubation, read-out: concentration which gives a 50% inhibition of the secretion of Apo CIII. Type of data set: cell-based. On the procedure:
The hypolipidaemiant activity of the compounds of the invention result from their ability to reduce the secretion of apo CIII.
The Hep G2 cell line is derived from a human hepatic carcinoma (ref. ECACC No. 85011430).
The cells are cultured at 37° C., 5% CO2 in 96-well microtitration plates at a rate of 40 000 cells (200 μl) per well in a DMEM buffer, 10% foetal calf serum, 1% Glutamax+antibiotics, for 24 hours. […] The cells are incubated for 24 hours at 37° C., 5% CO2 and the medium is then removed.
The amount of apolipoprotein CIII secreted into the medium is measured by means of an assay of ELISA type. Each sample of culture medium is diluted 5-fold in a 100 mM phosphate buffer, 1% BSA. […]
The optical density is read directly using a spectrophotometer at 492 nm. The amount of Apo CIII is calculated relative to a calibration curve produced using an assayed human serum of Apo CIII and diluted under the same conditions as the Apo CIII contained in the culture medium. […]
The active substances bring about a reduction in the secretion of Apo CIII into the medium by the adherent cells. The concentration of Apo CIII is measured for each treatment and compared with the control test (no treatment).
The percentage of inhibition is calculated according to: […]
(§1) The percentage of inhibition is calculated only for the substances that show no toxicity on the Hep G2 cells.

The subject of data set [2] is Hep G2 cells. Nature of the data set: Toxicity on the cells by staining with neutral red. Type of data set: cell-based, human. To be noted: for the concentrations studied. On the procedure: In the absence of a chemical treatment, the response of the cells is 100% (0% inhibition). Under the conditions used, the effect of DMSO on the cells is negligible. The toxicity of the chemical substances on the cells is measured by the technique of staining with neutral red.
as §1

With `C1=C(c2ccc(-c3ccccc3)cc2)N2CCc3ccccc3N=C2S1` [Example 4, 3-(biphenyl-4-yl)-5,6-dihydrothiazolo[2,3-b]-1,3-benzodiazepine], the IC50 in data set [1] was 17.4 µM. Further, the cell toxicity entry in data set [2] is given as “No cell toxicity is observed”.
In turn, `CCOC(=O)c1ccc(C2=CSC3=Nc4ccccc4CCN23)cc1` [Example 36, 3-[4-(ethoxycarbonyl)phenyl]-5,6-dihydro-thiazolo-[2,3-b]-1,3-benzodiazepine] gave a melting point of 231 to 233 °C.
The same measure, in the same setting: the figure for `C1=C(c2ccc3ccccc3c2)N2CCc3ccccc3N=C2S1` [Example 47] is 188.5 to 189.5 °C.
On the same count and under the same terms, the figure for `CC1=CSC2=Nc3ccccc3CCN12` [Example 50] is 194 to 196 °C; for `C1=C(c2ccc(Oc3ccccc3)cc2)N2CCc3ccccc3N=C2S1` [Example 67] it is 204 to 205 °C.
